Reference: paper PMC5011342, “A high throughput drug screening assay to identify compounds that promote oligodendrocyte differentiation using acutely dissociated and purified oligodendrocyte precursor cells” (BMC Research Notes, 2016)
Read-outs that look alike come from different tables or passages of the source.

Experiments:
[1] = test system: acutely dissociated and purified rat OPCs; assay: Acute OL differentiation assay (MBP expression/cell, immunofluorescent image quantification); type: cell-based; settings: sheet "All OLga data"; for activation at 2 µM / activation at 10 µM: Rattus norvegicus
Procedure, shortened: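 Oligodendrocyte precursor cells were enriched from P6-P7 Sprague–Dawley rat brains by immunopanning (RAN-2 and GalC depletion, O4 selection), plated at 5000 cells/well in serum-free, mitogen-free differentiation media on PDL/laminin 96-well view plates, centrifuged at 200×g, and pre-incubated 1–2 h before test compounds were added in quadruplicate. On DIV4, cells were fixed, stained for MBP and DAPI, imaged automatically, and MBP expression per cell was quantified.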

[2] = test system: expanded OPCs; assay: cells; settings: for viability at 0.1 µM / viability at 1 µM / viability at 10 µM: Rattus norvegicus, 72 h
Procedure, shortened: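 Expanded OPCs seeded at 10,000 cells/well in differentiation media, then exposed to NCC library compounds at 10, 1 and 0.1 µM (quadruplicate, 0.1% DMSO) for three days. Viability read as alamarBlue fluorescence (560/590 nm) after 4 h at 37 °C; tunicamycin 5 ng/ml served as toxicity control.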

[3] = 2 uM test compound, relative to quetiapine, read-out: OL differentiation, 2 uM (% Quet)
[4] = 10 uM test compound, relative to quetiapine, read-out: OL differentiation, 10 uM (% Quet)
[5] = read-out: 0.1 µM (% DMSO), alamarBlue viability of expanded OPCs, compound at 0.1 µM, sheet All Tox data
[6] = read-out: 1 µM (% DMSO), alamarBlue viability of expanded OPCs, compound at 1 µM, sheet All Tox data
[7] = read-out: 10 µM (% DMSO), alamarBlue viability of expanded OPCs, compound at 10 µM, sheet All Tox data
[8] = test compound at 2 uM, MBP expression relative to quetiapine, NCC library screen, read-out: 2 uM (% Quet)
[9] = test compound at 10 uM, MBP expression relative to quetiapine, NCC library screen, read-out: 10 uM (% Quet)
[10] = alamarBlue viability of expanded OPCs, compound at 0.1 µM, relative to DMSO control
[11] = alamarBlue viability of expanded OPCs, compound at 1 µM, relative to DMSO control
[12] = alamarBlue viability of expanded OPCs, compound at 10 µM, relative to DMSO control
[13] = test compound at 2 uM, NCC library screen, relative to quetiapine, read-out: 2 uM (% Quet)
[14] = test compound at 10 uM, NCC library screen, relative to quetiapine, read-out: 10 uM (% Quet)
[15] = read-out: 0.1 µM (% DMSO), alamarBlue viability, NCC library compound at 0.1 µM, sheet "All Tox data"
[16] = read-out: 1 µM (% DMSO), alamarBlue viability, NCC library compound at 1 µM, sheet "All Tox data"
[17] = read-out: 10 µM (% DMSO), alamarBlue viability, NCC library compound at 10 µM, sheet "All Tox data"

Structure (SMILES)	activation at 2 µM [1, 3]	activation at 10 µM [1, 4]	viability at 0.1 µM [2, 5]	viability at 1 µM [2, 6]	viability at 10 µM [2, 7]	0.1 µM (% DMSO) [2, 10]	1 µM (% DMSO) [2, 11]	10 µM (% DMSO) [2, 12]	activation at 2 µM [1, 13]	activation at 10 µM [1, 14]	other results
N[C@@H](C(=O)N[C@@H]1C(=O)N2C(C(=O)O)=C(CSc3c[nH]nn3)CS[C@H]12)c1ccc(O)cc1 [Cefatrizine]	11.1%	-10.4%	99.1%	95.1%	104%	–	–	–	–	–	–
OC(CCN1CCCCC1)(c1ccccc1)C1CCCCC1 (stereo not drawn) [Trihexyphenidyl]	–	–	–	–	–	90.6 % DMSO	84.6 % DMSO	67.7 % DMSO	–	–	activation at 2 µM [1, 8]: -19.1%; activation at 10 µM [1, 9]: -45.6%
Cn1c(=O)c2[nH]cnc2n(C)c1=O [Theophylline]	–	–	–	–	–	91.7 % DMSO	95.8 % DMSO	88.9 % DMSO	-12%	6.9%	–
C[N+]1(CCC(C(N)=O)(c2ccccc2)c2ccccc2)CCCCC1 [Fenpiverinium]	-23.8%	-19.5%	93.3%	96.9%	101%	–	–	–	–	–	–
CC(=O)[C@@]1(O)CC[C@H]2[C@@H]3C[C@H](C)C4=CC(=O)C=C[C@]4(C)[C@@]3(F)[C@@H](O)C[C@@]21C [Fluorometholone]	–	–	–	–	–	112.5 % DMSO	98.3 % DMSO	86.2 % DMSO	–	–	activation at 2 µM [1, 8]: 9.3%; activation at 10 µM [1, 9]: -24.3%
CNC1=Nc2ccc(Cl)cc2C(c2ccccc2)=[N+]([O-])C1 [Chlordiazepoxide]	–	–	–	–	–	–	–	–	-0.9%	23.8%	viability at 0.1 µM [2, 15]: 91.2%; viability at 1 µM [2, 16]: 93.8%; viability at 10 µM [2, 17]: 90.6%
COc1cc(C[C@@H](CO)[C@H](CO)Cc2ccc(O)c(OC)c2)ccc1O [Secoisolariciresinol]	–	–	–	–	–	–	–	–	–	–	2 uM (% Quet) ([1]; test compound at 2 uM, NCC library screen, relative to quetiapine): -3.9 % Quet; 10 uM (% Quet) ([1]; test compound at 10 uM, NCC library screen, relative to quetiapine): 12.5 % Quet; 0.1 µM (% DMSO) ([2]; alamarBlue viability, NCC library compound at 0.1 µM, sheet "All Tox data"): 92.4 % DMSO; 1 µM (% DMSO) ([2]; alamarBlue viability, NCC library compound at 1 µM, sheet "All Tox data"): 88.4 % DMSO; 10 µM (% DMSO) ([2]; alamarBlue viability, NCC library compound at 10 µM, sheet "All Tox data"): 78.5 % DMSO
Nc1ccc(O)c(C(=O)O)c1 [Mesalamine]	-9.1%	-0.34%	86.2%	92.2%	87.2%	–	–	–	–	–	–
C[C@H]1CCC[C@H](O)CCCCCc2cc(O)cc(O)c2C(=O)O1 [Zeranol]	-37.2%	-51.9%	83.6%	85.8%	69.3%	–	–	–	–	–	–
Cc1onc(-c2ccccc2)c1C(=O)N[C@@H]1C(=O)N2[C@@H]1SC(C)(C)[C@@H]2C(=O)O [Oxacillin]	–	–	–	–	–	96.9 % DMSO	96.8 % DMSO	93.4 % DMSO	–	–	activation at 2 µM [1, 8]: -14.9%; activation at 10 µM [1, 9]: -26.1%
CCN(CC)CC(=O)Nc1c(C)cccc1C [Lidocaine]	-0.03%	17.6%	84.8%	86%	85.5%	–	–	–	–	–	–
CC[C@]1(O)CC[C@H]2[C@@H]3CCC4=CCCC[C@@H]4[C@H]3CC[C@@]21C [Ethylestrenol]	–	–	–	–	–	–	–	–	-2.2%	-45.5%	viability at 0.1 µM [2, 15]: 98%; viability at 1 µM [2, 16]: 96.1%; viability at 10 µM [2, 17]: 54.2%
Nc1ccc(S(=O)(=O)c2ccc(N)cc2)cc1 [Dapsone]	–	–	–	–	–	101.9 % DMSO	96.3 % DMSO	99.0 % DMSO	-13.2%	-22.2%	–
C[C@]12CCC(=O)C=C1CC[C@@H]1[C@@H]2CC[C@@]2(C)[C@H]1CC[C@]2(C)O [Methyltestosterone]	-8.1%	-36.5%	103%	112%	102%	–	–	–	–	–	–
O=C(NCCO[N+](=O)[O-])c1cccnc1 [Nicorandil]	–	–	–	–	–	–	–	–	14.7%	3.2%	viability at 0.1 µM [2, 15]: 92.6%; viability at 1 µM [2, 16]: 85.6%; viability at 10 µM [2, 17]: 82.2%
